These results are taken from patent EP0728482A2, “Use of hcp specific compounds to enhance erythropoiesis” (SMITHKLINE BEECHAM CORPORATION, priority 1995, dated 1996).

The structures appear in SMILES notation.

One experiment deals with T1, human fyn SH2 domain (Homo sapiens, UniProt P06241).
T1 construct: made in house; host or cells: E. coli (pGEX-2T)
As to the kind of experiment: ELISA-based SH2 domain / pY peptide binding assay, fyn SH2 domain. As for the experimental part:
(§1) The inhibitory activity of compounds at the different human SH2 domains was determined in vitro using SH2 domains expressed as fusion proteins in E. coli. The SH2 domains used herein were the human forms of the src SH2 domain, Grb2 SH2 domain, lck SH2 domain, fyn SH2 domain, SH-PTP2 SH2 domain, p85 SH2 domain and hcp SH2 domain.
(§2) Fusion proteins having the structure GST-X-SH2 were prepared as described in the GST gene fusion kit system available from Pharmacia (New Jersey). GST is the tagging sequence glutathione s-transferase epitope (SEQ ID NO: 8) for fyn, Grb2 and SH-PTP2 and is the tagging sequence glutathione s-transferase epitope (SEQ ID NO: 9) for p85. SH2 refers to the SH2 domains of fyn, Grb2, p85 and SH-PTP2 which were expressed and purified using glutathione Sepharose 4B (Pharmacia) according to "Current Protocols in Molecular Biology", ed. FM Ausubel et al., pub. John Wiley and Sons, Inc., (1995), p 16.7.1. X is an appropriate linker, preferably of 6 to 21 base pairs, used to keep the SH2 construct in frame and complement cloning. As such, the sequence of X is not critical. One skilled in the art can readily construct the appropriate linker. The DNA sequence encoding each GST-X-SH2 fusion protein was designed such that the indicated restriction sites (BamH1 and EcoRI) flank the SH2 region. […]
A general note: ELISA stands for enzyme-linked immunosorbent assay.

Another experiment addresses T2, human SH-PTP2 SH2 domain (Homo sapiens, UniProt Q06124).
T2 construct: made in house; host or cells: E. coli (pGEX-2T)
T2 sequence (Q06124 1-106): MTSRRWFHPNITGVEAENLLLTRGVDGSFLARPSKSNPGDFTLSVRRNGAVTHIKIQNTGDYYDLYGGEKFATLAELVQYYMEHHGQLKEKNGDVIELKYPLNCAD
Put plainly: ELISA-based SH2 domain / pY peptide binding assay, SH-PTP2 SH2 domain. To be noted: Ki calculated from IC50 with the expanded equation. The procedure:
as §1, §2

Another experiment deals with T3, human Grb2 SH2 domain (Homo sapiens, UniProt P62993).
T3 construct: made in house; host or cells: E. coli (pGEX-2T)
Put plainly: ELISA-based SH2 domain / pY peptide binding assay, Grb2 SH2 domain. As for the experimental part: as §1, §2

Setting [1] is: Ki calculated from IC50 with the expanded equation.
Where [2] appears, read: inhibition of binding of 0.1 uM biotinylated pY peptide to SH2 domain fusion protein.

Broadly, the Ki is the dissociation constant of the complex between target and ligand, obtained from inhibition or displacement. As a reminder, the IC50 is the concentration needed to halve the response being measured. A higher IC50 goes with lower potency.

T3 sequence (P62993 58-159): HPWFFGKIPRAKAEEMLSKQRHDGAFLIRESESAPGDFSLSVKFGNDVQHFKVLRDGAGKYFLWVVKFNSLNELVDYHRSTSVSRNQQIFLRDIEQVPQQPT
T1 sequence (P06241 143-252): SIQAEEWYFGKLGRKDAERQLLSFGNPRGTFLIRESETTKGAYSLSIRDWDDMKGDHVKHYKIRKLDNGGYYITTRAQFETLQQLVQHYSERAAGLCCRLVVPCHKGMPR

Take `CCCCCCNC(=O)[C@H]1CC[C@H](CNC(=O)c2ccc(C(=O)c3ccc(C(=O)O)cc3)cc2)CC1` [Compound 6, 4-carboxy-benzophenone-4-carboxamido-trans-4-methyl-cyclohexyl-N-hexyl carboxamide]: the Ki on human fyn SH2 domain (setting [1]), on human SH-PTP2 SH2 domain and at human Grb2 SH2 domain (setting [1]) was over 1000 µM each time. Moreover, the IC50 at human fyn SH2 domain (setting [2]) and at human Grb2 SH2 domain (setting [2]) was over 300 µM throughout.
